Assay results from paper PMC3524753, “SU11652 Inhibits tyrosine kinase activity of FLT3 and growth of MV-4-11 cells” (Journal of Hematology & Oncology, 2012).
Changes are numbered by the printed parent chain.

What was measured:
Test in all cases: in vitro kinase assay with GST-FLT3S substrate, anti-phosphotyrosine immunoblot
Assay type in all cases: biochemical
[1] = target: T1, FLT3 (FMS-like tyrosine kinase 3) (Homo sapiens, UniProt P36888, D835Y)
T1 construct: catalytic domain of FLT3 D835Y
T1 sequence (P36888 564-993 D835Y limits assumed): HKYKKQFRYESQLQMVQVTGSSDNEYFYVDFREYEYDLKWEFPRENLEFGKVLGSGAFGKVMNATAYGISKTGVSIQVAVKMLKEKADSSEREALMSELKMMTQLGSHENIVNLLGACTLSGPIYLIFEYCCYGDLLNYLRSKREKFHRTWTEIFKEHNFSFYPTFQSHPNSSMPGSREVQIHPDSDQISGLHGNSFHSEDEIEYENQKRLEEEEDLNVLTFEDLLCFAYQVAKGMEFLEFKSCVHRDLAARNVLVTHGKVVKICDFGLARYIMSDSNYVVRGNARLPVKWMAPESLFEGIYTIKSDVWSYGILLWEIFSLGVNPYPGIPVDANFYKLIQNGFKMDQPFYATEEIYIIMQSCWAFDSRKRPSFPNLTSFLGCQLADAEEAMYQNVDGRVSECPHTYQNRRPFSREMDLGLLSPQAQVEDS

[2] = target: T2, FLT3 (FMS-like tyrosine kinase 3) (Homo sapiens, UniProt P36888, D835H)
T2 construct: catalytic domain of FLT3 D835H
T2 sequence (P36888 564-993 D835H limits assumed): T1 sequence (P36888 564-993 D835Y limits assumed) with Y272H

[3] = target: T3, FLT3 (FMS-like tyrosine kinase 3) (Homo sapiens, UniProt P36888)
T3 construct: catalytic domain of wild type FLT3
T3 sequence (P36888 564-993 limits assumed): T1 sequence (P36888 564-993 D835Y limits assumed) with Y272D

## CCN(CC)CCNC(=O)c1c(C)[nH]c(/C=C2\C(=O)Nc3ccc(Cl)cc32)c1C [SU11652]
[1]
  IC50: 16 nM
[2]
  IC50: 32 nM
[3]
  IC50: ~1.5 nM
